Measurements reported in US20250026752A1, “POSITIVE ALLOSTERIC MODULATORS OF THE MUSCARINIC ACETYLCHOLINE RECEPTOR M4” (Vanderbilt University, priority 2021, published 2025).

Biological target: T1, human mAChR M4 (Homo sapiens, UniProt P08173)
T1 construct: expressed in transfected cells; host or cells: CHO-K1 (ATCC), stably expressing hM4 and Gqi5
T1 sequence (P08173 1-479): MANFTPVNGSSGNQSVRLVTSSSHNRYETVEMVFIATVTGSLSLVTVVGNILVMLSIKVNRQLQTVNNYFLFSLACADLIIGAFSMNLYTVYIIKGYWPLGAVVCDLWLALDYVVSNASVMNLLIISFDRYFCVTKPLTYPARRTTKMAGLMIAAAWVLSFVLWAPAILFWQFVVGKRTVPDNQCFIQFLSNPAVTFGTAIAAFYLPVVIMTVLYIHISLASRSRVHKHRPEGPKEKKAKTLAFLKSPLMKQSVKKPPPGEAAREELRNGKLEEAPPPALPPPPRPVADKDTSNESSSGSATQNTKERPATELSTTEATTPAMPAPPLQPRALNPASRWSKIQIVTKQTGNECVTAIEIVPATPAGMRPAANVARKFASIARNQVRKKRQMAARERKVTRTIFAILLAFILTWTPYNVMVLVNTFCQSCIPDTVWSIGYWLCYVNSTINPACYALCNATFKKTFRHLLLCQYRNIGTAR
Test: mAChR M4 cell-based functional assay: calcium flux (Fluo-4, FDSS), positive allosteric modulator activity on the EC20 acetylcholine response, hM4-Gqi5 CHO-K1 cells
Settings: for Emax at 30 µM: CHO-K1, human M4, % ACh maximum at 30 μM; for EC50: human M4, PAM activity on EC20 acetylcholine response, calcium flux, read-out: Human M4 EC50
How it was run: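 CHO-K1 cells stably expressing human M4 with chimeric Gqi5, loaded with Fluo-4 AM for 50 min at 37° C. Compounds (11-point, 1:3 dilutions) added first, then an acetylcholine EC20 at 144 s; calcium read on FDSS at 1 Hz. EC50 is the half-maximal increase above the EC20 baseline, four-parameter logistic fit.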

| Emax at 30 µM [%] | EC50 [nM] | SMILES |
| --- | --- | --- |
| 43 | 950 | Cc1ccc2c(N3CCc4ncc(C(F)(F)F)cc4C3)nc(C)nc2c1 [Compound 124, 2,7-dimethyl-4-[3-(trifluoromethyl)-7,8-dihydro-5H-1,6-naphthyridin-6-yl]quinazoline] |
| 87 | 230 | Cc1nc(N2CCc3ncc(Oc4ccccc4F)cc3C2)c2cc(F)ccc2n1 [Compound 133, 6-fluoro-4-[3-(2-fluorophenoxy)-7,8-dihydro-5H-1,6-naphthyridin-6-yl]-2-methyl-quinazoline] |
| 75 | 90 | Cc1nc(N2CCc3ncc(C(F)(F)F)cc3C2)c2cc(Cl)ccc2n1 [Compound 134, 6-chlroo-2-methyl-4-[3-(trifluoromethyl)-7,8-dihydro-5H-1,6-naphthyridin-6-yl]quinazoline] |
| 74 | 1890 | Cc1ccc(Oc2cnc3c(c2)CN(c2ncnc4ccc(F)cc24)CC3)c(F)c1 [Compound 144, 6-fluoro-4-[3-(2-fluoro-4-methyl-phenoxy)-7,8-dihydro-5H-1,6-naphthyridin-6-yl]quinazoline] |
| 64 | 4800 | Cc1ccc(Oc2cnc3c(c2)CN(c2ncnc4ccc(Cl)cc24)CC3)c(F)c1 [Compound 145, 6-chloro-4-[3-(2-fluoro-4-methyl-phenoxy)-7,8-dihydro-5H-1,6-naphthyridin-6-yl]quinazoline] |
| 40 | > 10000 | COc1ccc2ncnc(N3CCc4ncc(Oc5ccc(C)cc5F)cc4C3)c2c1 [Compound 146, 4-[3-(2-fluoro-4-methyl-phenoxy)-7,8-dihydro-5H-1,6-naphthyridin-6-yl]-6-methoxy-quinazoline] |
| 54 | 8340 | Cc1ccc(Oc2cnc3c(c2)CN(c2nc(C)nc4ccc(Cl)cc24)CC3)c(F)c1 [Compound 147, 6-chloro-4-[3-(2-fluoro-4-methyl-phenoxy)-7,8-dihydro-5H-1,6-naphthyridin-6-yl]-2-methyl-quinazoline] |
| 88 | 760 | Cc1ccc(F)c(Oc2cnc3c(c2)CN(c2ncnc4ccc(F)cc24)CC3)c1 [Compound 148, 6-fluoro-4-[3-(2-fluoro-5-methyl-phenoxy)-7,8-dihydro-5H-1,6-naphthyridin-6-yl]quinazoline] |
| 97 | 170 | Clc1ccc2nc(Cl)nc(N3CCc4ncc(Br)cc4C3)c2c1 [Compound 149, 4-(3-bromo-7,8-dihydro-5H-1,6-naphthyridin-6-yl)-2,6-dichloro-quinazoline] |
| 72 | 5290 | Cc1ccc(F)c(Oc2cnc3c(c2)CN(c2ncnc4ccc(Cl)cc24)CC3)c1 [Compound 152, 6-chloro-4-[3-(2-fluoro-5-methyl-phenoxy)-7,8-dihydro-5H-1,6-naphthyridin-6-yl]quinazoline] |
| 38 | > 10000 | COc1ccc2ncnc(N3CCc4ncc(Oc5cc(C)ccc5F)cc4C3)c2c1 [Compound 153, 4-[3-(2-fluoro-5-methyl-phenoxy)-7,8-dihydro-5H-1,6-naphthyridin-6-yl]-6-methoxy-quinazoline] |

Further lines, the compound ahead of its results:

| SMILES | Emax at 30 µM [%] | EC50 [nM] |
| --- | --- | --- |
| Fc1ccc2ncnc(N3CCc4ncc(C(F)(F)F)cc4C3)c2c1 [Compound 122, 6-fluoro-4-[3-(trifluoromethyl)-7,8-dihydro-5H-1,6-naphthyridin-6-yl]quinazoline] | 89 | 90 |
| FC(F)(F)c1cnc2c(c1)CN(c1nc(Cl)nc3ccccc13)CC2 [Compound 123, 2-chloro-4-[3-(trifluoromethyl)-7,8-dihydro-5H-1,6-naphthyridin-6-yl]quinazoline] | 68 | 340 |
| Cc1nc(N2CCc3ncc(C(F)(F)F)cc3C2)c2c(F)cccc2n1 [Compound 125, 5-fluoro-2-methyl-4-[3-(trifluoromethyl)-7,8-dihydro-5H-1,6-naphthyridin-6-yl]quinazoline] | 78 | 400 |
| Cc1nc(N2CCc3ncc(C(F)(F)F)cc3C2)c2cccc(F)c2n1 [Compound 126, 8-fluoro-2-methyl-4-[3-(trifluoromethyl)-7,8-dihydro-5H-1,6-naphthyridin-6-yl]quinazoline] | 66 | 310 |
| Cc1nc(N2CCc3ncc(C(F)(F)F)cc3C2)c2ccc(F)cc2n1 [Compound 127, 7-fluoro-2-methyl-4-[3-(trifluoromethyl)-7,8-dihydro-5H-1,6-naphthyridin-6-yl]quinazoline] | 63 | 430 |
| Cc1nc(N2CCc3ncc(C(F)(F)F)cc3C2)c2ccc(Br)cc2n1 [Compound 128, 7-bromo-2-methyl-4-[3-(trifluoromethyl)-7,8-dihydro-5H-1,6-naphthyridin-6-yl]quinazoline] | 32 | 1740 |
| Cc1nc(N2CCc3ncc(C(F)(F)F)cc3C2)c2cc(Br)ccc2n1 [Compound 129, 6-bromo-2-methyl-4-[3-(trifluoromethyl)-7,8-dihydro-5H-1,6-naphthyridin-6-yl]quinazoline] | 86 | 180 |
| Cc1nc(N2CCc3ncc(C(F)(F)F)cc3C2)c2cc(F)ccc2n1 [Compound 130, 6-fluoro-2-methyl-4-[3-(trifluoromethyl)-7,8-dihydro-5H-1,6-naphthyridin-6-yl]quinazoline] | 86 | 80 |
| Cc1ccc2ncnc(N3CCc4ncc(C(F)(F)F)cc4C3)c2c1 [Compound 131, 6-methyl-4-[3-(trifluoromethyl)-7,8-dihydro-5H-1,6-naphthyridin-6-yl]quinazoline] | 82 | 30 |
| Cc1nc(N2CCc3ncc(C(F)(F)F)cc3C2)c2c(Cl)cccc2n1 [Compound 132, 5-chloro-2-methyl-4-[3-(trifluoromethyl)-7,8-dihydro-5H-1,6-naphthyridin-6-yl]quinazoline] | 32 | > 10000 |
| FC(F)(F)c1cnc2c(c1)CN(c1nc(Cl)nc3ccc(C(F)(F)F)cc13)CC2 [Compound 135, 2-chloro-6-(trifluoromethyl)-4-[3-(trifluoromethyl)-7,8-dihydro-5H-1,6-naphthyridin-6-yl]quinazoline] | 91 | 1660 |
| FC(F)(F)c1cnc2c(c1)CN(c1ncnc3ccc(Br)cc13)CC2 [Compound 136, 6-bromo-4-[3-(trifluoromethyl)-7,8-dihydro-5H-1,6-naphthyridin-6-yl]quinazoline] | 98 | 160 |
| Fc1ccc2c(N3CCc4ncc(C(F)(F)F)cc4C3)ncnc2c1 [Compound 137, 7-fluoro-4-[3-(trifluoromethyl)-7,8-dihydro-5H-1,6-naphthyridin-6-yl]quinazoline] | 83 | 430 |
| Cc1nc(N2CCc3ncc(C(F)(F)F)cc3C2)c2ccccc2n1 [Compound 138, 2-methyl-4-[3-(trifluoromethyl)-7,8-dihydro-5H-1,6-naphthyridin-6-yl]quinazoline] | 82 | 480 |
| COc1ccc2ncnc(N3CCc4ncc(C(F)(F)F)cc4C3)c2c1 [Compound 139, 6-methoxy-4-[3-(trifluoromethyl)-7,8-dihydro-5H-1,6-naphthyridin-6-yl]quinazoline] | 97 | 200 |
| FC(F)(F)c1cnc2c(c1)CN(c1ncnc3ccc(Cl)cc13)CC2 [Compound 140, 6-chloro-4-[3-(trifluoromethyl)-7,8-dihydro-5H-1,6-naphthyridin-6-yl]quinazoline] | 105 | 80 |
| FC(F)(F)c1cnc2c(c1)CN(c1nc(Cl)nc3ccc(Cl)cc13)CC2 [Compound 141, 2,6-dichloro-4-[3-(trifluoromethyl)-7,8-dihydro-5H-1,6-naphthyridin-6-yl]quinazoline] | 95 | 220 |
| Cc1nc(N2CCc3ncc(C(F)(F)F)cc3C2)c2cc(C#N)ccc2n1 [Compound 142, 2-methyl-4-[3-(trifluoromethyl)-7,8-dihydro-5H-1,6-naphthyridin-6-yl]quinazoline-6-carbonitrile] | 105 | 260 |
| Cc1nc(N2CCc3ncc(C(F)(F)F)cc3C2)c2cc(C3CC3)ccc2n1 [Compound 143, 6-cyclopropyl-2-methyl-4-[3-(trifluoromethyl)-7,8-dihydro-5H-1,6-naphthyridin-6-yl]quinazoline] | 77 | 1420 |
| Fc1ccc2nc(Cl)nc(N3CCc4ncc(Br)cc4C3)c2c1 [Compound 150, 4-(3-bromo-7,8-dihydro-5H-1,6-naphthyridin-6-yl)-2-chloro-6-fluoro-quinazoline] | 105 | 100 |
| Fc1cc2ncnc(N3CCc4ncc(C(F)(F)F)cc4C3)c2cc1F [Compound 151, 6,7-difluoro-4-[3-(trifluoromethyl)-7,8-dihydro-5H-1,6-naphthyridin-6-yl]quinazoline] | 102 | 110 |
